{"source": "ChEMBL document CHEMBL1147372", "about": "“Bioactive metabolites from Sicilian marine fennel, Crithmum maritimum” (J Nat Prod, 1993)"}
{"assay": "Toxicity in Artemia salina after 24 hrs", "format": "organism-based", "conditions": "in vivo", "units": {"LC50 at 24 h": "µg/mL"}}
{"smiles": "C=C[C@@H](O)C#CC#C[C@@H](O)/C=C\\CCCCCCC", "note": "[FALCARINDIOL]", "LC50 at 24 h": 3.32}
{"smiles": "C=C[C@H](O)C#CC#CC/C=C\\CCCCCCC", "note": "[FALCARINOL]", "LC50 at 24 h": 0.67}
{"smiles": "COc1cc(C=O)ccc1OC/C=C(\\C)CCC=C(C)C", "note": "[GERANYLOXYVANILLIN]", "LC50 at 24 h": 85.8}
